Laboratory results: ChEMBL document CHEMBL1151092, “Novel 4-substituted pyridine derivatives: Practical derivatization and biological profiles of reversible inhibitors” (Bioorg Med Chem Lett, 1997)

How the values were obtained:
Assay type in all cases: tissue-based
[1] = target: Potassium-transporting ATPase (Sus scrofa, UniProt P19156); assay: The compound was tested for its inhibitory activity against H+/K+ ATPase by using hog stomach membrane fractions (pH 6.4)
[2] = target: T1, Potassium-transporting ATPase (Sus scrofa) (UniProt P18434+P19156); assay: The compound was tested for its inhibitory activity against H+/K+ ATPase by using hog stomach membrane fractions (pH 6.4) at 4 uM
[3] = target: T1, Potassium-transporting ATPase (Sus scrofa); assay: The compound was tested for its inhibitory activity against H+/K+ ATPase by using hog stomach membrane fractions at 8 uM
[4] = target: T1, Potassium-transporting ATPase (Sus scrofa); assay: The compound was tested for its inhibitory activity against H+/K+ ATPase by using hog stomach membrane fractions at 4 uM
[5] = target: T1, Potassium-transporting ATPase (Sus scrofa); assay: The compound was tested for its inhibitory activity against H+/K+ ATPase by using hog stomach membrane fractions at 10 uM

Potassium-transporting ATPase, sequence (P18434 whole entry): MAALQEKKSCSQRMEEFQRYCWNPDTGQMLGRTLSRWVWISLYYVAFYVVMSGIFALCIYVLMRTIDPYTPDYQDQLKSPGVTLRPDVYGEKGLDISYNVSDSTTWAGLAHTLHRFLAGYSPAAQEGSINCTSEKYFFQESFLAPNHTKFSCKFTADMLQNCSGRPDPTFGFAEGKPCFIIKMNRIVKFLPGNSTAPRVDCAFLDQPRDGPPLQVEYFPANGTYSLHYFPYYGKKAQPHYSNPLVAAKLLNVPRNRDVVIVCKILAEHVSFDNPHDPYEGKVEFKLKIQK
Potassium-transporting ATPase, sequence (P19156 whole entry): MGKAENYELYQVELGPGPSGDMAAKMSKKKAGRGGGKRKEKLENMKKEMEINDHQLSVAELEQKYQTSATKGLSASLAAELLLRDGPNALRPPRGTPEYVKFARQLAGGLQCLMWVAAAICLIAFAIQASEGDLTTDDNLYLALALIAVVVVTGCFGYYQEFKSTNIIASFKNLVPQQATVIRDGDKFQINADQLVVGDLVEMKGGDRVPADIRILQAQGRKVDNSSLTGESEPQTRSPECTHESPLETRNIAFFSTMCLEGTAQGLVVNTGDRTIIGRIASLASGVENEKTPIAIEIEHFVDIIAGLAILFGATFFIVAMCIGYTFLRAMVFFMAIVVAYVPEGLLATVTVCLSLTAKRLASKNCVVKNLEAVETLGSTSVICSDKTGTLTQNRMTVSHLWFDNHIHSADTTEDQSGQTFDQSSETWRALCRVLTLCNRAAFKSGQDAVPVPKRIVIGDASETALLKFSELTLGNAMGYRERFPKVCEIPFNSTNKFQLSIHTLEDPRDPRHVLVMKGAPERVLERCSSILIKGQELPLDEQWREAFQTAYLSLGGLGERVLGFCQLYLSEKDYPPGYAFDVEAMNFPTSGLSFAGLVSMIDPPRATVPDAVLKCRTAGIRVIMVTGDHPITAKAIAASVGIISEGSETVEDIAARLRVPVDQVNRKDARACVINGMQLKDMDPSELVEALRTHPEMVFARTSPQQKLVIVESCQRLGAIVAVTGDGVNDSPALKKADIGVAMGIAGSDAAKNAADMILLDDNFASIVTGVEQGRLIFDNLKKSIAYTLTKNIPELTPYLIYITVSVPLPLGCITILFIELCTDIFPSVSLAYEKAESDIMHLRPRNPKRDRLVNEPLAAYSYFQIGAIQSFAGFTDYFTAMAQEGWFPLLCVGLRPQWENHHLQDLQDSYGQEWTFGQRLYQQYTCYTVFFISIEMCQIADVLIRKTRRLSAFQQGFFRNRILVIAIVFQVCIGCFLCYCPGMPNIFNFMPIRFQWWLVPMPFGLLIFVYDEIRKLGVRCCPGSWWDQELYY

| Compound | IC50 [1] [µM] | also measured |
| --- | --- | --- |
| CC#CCOc1cc(C(CO)Cc2cccc3ccccc23)ncc1C (stereo unspecified) |  | inhibition [2]: 22% |
| Cc1cnc(C(CO)Cc2cccc3ccccc23)cc1OC1CCCCC1 (stereo unspecified) | 0.5 |  |
| Cc1cnc(C(CO)Cc2cccc3ccccc23)cc1OCCOc1ccccc1 (stereo unspecified) |  | inhibition [3]: 27% |
| Cc1cnc(C(CO)Cc2cccc3ccccc23)cc1OCc1ccccn1 (stereo unspecified) |  | inhibition [4]: 21% |
| COc1ccccc1COc1cc(/C(=C\c2cccc3ccccc23)CO)ncc1C | 1.7 |  |
| Cc1cnc(C(CO)Cc2cccc3ccccc23)cc1Oc1ccccc1 (stereo unspecified) |  | inhibition [5]: 36% |
| Cc1cnc(/C(=C\c2cccc3ccccc23)CO)cc1OCc1ccccc1O | 0.9 |  |

The next lines start with results.

| IC50 [1] [µM] | Compound | also measured |
| --- | --- | --- |
| 0.6 | Cc1cnc(C(CO)Cc2cccc3ccccc23)cc1OCC(C)(C)C (stereo unspecified) |  |
| 3.1 | Cc1cnc(C(CO)Cc2cccc3ccccc23)cc1OCC1CCCCC1 (stereo unspecified) |  |
| 3 | CC(C)=CCOc1cc(C(CO)Cc2cccc3ccccc23)ncc1C (stereo unspecified) |  |
| 1.8 | Cc1cnc(C(CO)Cc2cccc3ccccc23)cc1OCc1ccccc1O (stereo unspecified) |  |
